The source of these data is publication PMC6982798, “Evaluation of Isoflavones as Bone Resorption Inhibitors upon Interactions with Receptor Activator of Nuclear Factor-κB Ligand (RANKL)” (Molecules, 2020).

Each structure is given as a SMILES string.

The assay deals with T1, sRANKL recombinant (RANKL) (Homo sapiens, UniProt O14788).
T1 construct: gene TNFSF11; human is named only for the docking model (3URF), whose residue numbers (K181, Y235, Q237, Y241) fit human RANKL
T1 sequence (O14788 140-317 limits assumed): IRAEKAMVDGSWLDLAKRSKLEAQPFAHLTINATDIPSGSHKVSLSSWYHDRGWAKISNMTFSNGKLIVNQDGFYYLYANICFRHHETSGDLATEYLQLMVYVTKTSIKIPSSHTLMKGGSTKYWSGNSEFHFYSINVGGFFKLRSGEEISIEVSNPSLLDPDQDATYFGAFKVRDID
The assay can be described thus: isothermal titration calorimetry (ITC), single binding mode fit. The following applies: read-out: KA × 10^3 (L/mol) (converted). The text has this: isothermal titration calorimetry (ITC), single binding mode fit on sRANKL recombinant (RANKL)
A general note: ITC needs no label: the signal is the heat of the interaction.
For the compound `O=c1c(-c2ccc(O)cc2)coc2cc(O)ccc12` [Daidzein], the Kd was 62.7 µM.

As to `COc1ccc(-c2coc3cc(O)cc(O)c3c2=O)cc1` [Biochanin A], the Kd is 833 µM.

As to `COc1ccc(-c2coc3cc(O)ccc3c2=O)cc1` [Formononetin], the Kd is 318 µM.

As for `O=c1oc2cc(O)ccc2c2oc3cc(O)ccc3c12` [Coumestrol], the Kd was 1430 µM.

Take `O=c1c(-c2ccc(O)cc2)coc2cc(O)cc(O)c12` [Genistein]: the Kd was 317 µM.
